Counter-ions that a name gives are not always drawn.
Legend:
UUO mice = UUO mice treated with antagonist, compared with LPA1 (-/-) mice; cited from earlier work
[1] = system: pancreatic cancer cell lines; conditions: cited from earlier work
[2] = system: human foetal lung fibroblasts; conditions: cited from earlier work
[3] = system: mouse epithelial renal cell line, MCT; conditions: co-treatment with LPA, MCT cells; cited from earlier work
IPF patients = conditions: 26-week clinical trial in IPF patients; cited from earlier work
nerve-injured mice = conditions: pretreatment; cited from earlier work
human LPA1 = biological target: T1, human LPA1 (Homo sapiens, UniProt Q92633); assay: LPA1 functional antagonist assay (calcium flux); format: cell-based; conditions: CHO cells overexpressing human LPA1; inhibition of calcium flux induced by 10 nM LPA; read-out: hLPA1 IC50
T1 construct: expressed in transfected cells; host or cells: Chinese hamster ovary (CHO) cells
Method: The effectiveness of compounds of the present invention as LPA1 inhibitors can be determined in an LPA1 functional antagonist assay as follows: • Chinese hamster ovary cells overexpressing human LPA1 were plated overnight (15,000 cells/well) in poly-D-lysine coated 384-well microplates (Greiner bio-one, Cat #781946) in DMEM/F12 medium (Gibco, Cat #11039). Following overnight culture, cells were loaded with calcium indicator dye (AAT Bioquest Inc, Cat #34601) for 30 minutes at 37° C. The cells were then equilibrated to room temperature for 30 minutes before the assay. Test compounds solubilized in DMSO were transferred to 384 well non-binding surface plates (Corning, Cat #3575) using the Labcyte Echo acoustic dispense and diluted with assay buffer [[…] with calcium/magnesium (Gibco Cat #14025-092), 20 mM HEPES (Gibco Cat #15630-080) and 0.1% fatty acid free BSA (Sigma Cat #A9205)] to a final concentration of 0.5% DMSO. Diluted compounds were added to the cells by FDSS6000 (Hamamatsu) at final concentrations ranging from 0.08 nM to 5 μM. and were then incubated for 20 min at room temperature at which time LPA (Avanti Polar Lipids Cat #857130C) was added at final concentrations of 10 nM to stimulate the cells. The compound IC50 value was defined as the concentration of test compound which inhibited 50% of the calcium flux induced by LPA alone. IC50 values were determined by fitting data to a 4-parameter logistic equation (GraphPad Prism, San Diego CA). b. In Vivo Assays LPA Challenge with Plasma Histamine Evaluation.

T1 sequence (Q92633 whole entry): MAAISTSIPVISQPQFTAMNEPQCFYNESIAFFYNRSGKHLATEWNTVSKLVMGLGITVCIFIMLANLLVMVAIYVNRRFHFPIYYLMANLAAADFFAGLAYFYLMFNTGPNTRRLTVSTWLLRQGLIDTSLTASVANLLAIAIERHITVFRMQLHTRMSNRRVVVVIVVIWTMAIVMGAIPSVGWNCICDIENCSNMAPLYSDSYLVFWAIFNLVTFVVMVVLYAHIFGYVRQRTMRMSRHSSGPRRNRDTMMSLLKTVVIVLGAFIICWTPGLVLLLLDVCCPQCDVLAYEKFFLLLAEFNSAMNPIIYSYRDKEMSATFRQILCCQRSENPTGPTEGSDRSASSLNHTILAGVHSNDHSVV

SMILES	IC50 (human LPA1) [µM]	further results
Cc1noc(-c2ccc(CSCCC(=O)O)cc2)c1NC(=O)OC(C)c1ccccc1Cl (stereo not shown) [Ki16425]	–	development of renal fibrosis (UUO mice): closely resembled the profile of LPA1 (−/−) mice; LPA-induced and ascites-induced invasion activity ([1]; highly peritoneal metastatic pancreatic cancer cell line): blocked; in vitro migration in response to LPA and ascites from pancreatic cancer patients ([1]; pancreatic cancer cell lines): effectively blocked; chemotaxis of human foetal lung fibroblasts induced by BAL from IPF patients [2]: blocked; LPA-induced expression of CTGF [3]: almost completely suppressed
Cc1noc(-c2ccc(-c3ccc(C4(C(=O)O)CC4)cc3)cc2)c1NC(=O)O[C@H](C)c1ccccc1 [BMS-986020]	–	rate of FVC (forced vital capacity) decline (IPF patients): significantly reduce
C[C@@H](N)[C@H]1CC[C@H](C(=O)Nc2ccncc2)CC1 [Example Y-27632]	–	allodynia and hyperalgesia (nerve-injured mice): completely abolished
CC(C)CN(C)C(=O)OCc1c(-c2ccc(O[C@@H]3CC[C@H]4C(C(=O)O)[C@@H]34)cn2)nnn1C (mixture of isomers) [Example 68, (±)-(1S,2R,5R,6R)-2-((6-(5-(((isobutyl(methyl)carbamoyl)oxy)methyl)-1-methyl-1H-1,2,3-triazol-4-yl)pyridin-3-yl)oxy)bicyclo[3.1.0]hexane-6-carboxylic Acid]	0.239	–
Cc1nc(-c2nnn(C)c2CNC(=O)OCC2CCC2)ccc1O[C@@H]1CCC2C(C(=O)O)C21 (mixture of isomers) [Example 47, (±)-(2R)-2-((6-(5-((((cyclobutylmethoxy)carbonyl)amino)methyl)-1-methyl-1H-1,2,3-triazol-4-yl)-2-methylpyridin-3-yl)oxy)bicyclo[3.1.0]hexane-6-carboxylic Acid]	0.191	–
Cc1nc(-c2nnn(C)c2COC(=O)N(C)CC2CCC2)ccc1O[C@H]1CCO[C@H](C(=O)O)C1 [Example 40]	0.158	–
Cc1nc(-c2nnn(C)c2COC(=O)N(C)CC2CCC2)ccc1O[C@H]1CC2C[C@H]2[C@H](C(=O)O)C1 (single isomer, unassigned) [Example 5]	0.028	–
Cc1nc(-c2nnn(C)c2COC(=O)N(C)C2CCCC2)ccc1O[C@H]1CCO[C@@H](C(=O)O)C1 [Example 36]	0.713	–
Cc1nc(-c2nnn(C)c2COC(=O)N(C)CC2CCC2)ccc1O[C@@H]1CC[C@H]2C(C(=O)O)[C@@H]12 (single isomer, unassigned) [Example 44, TFA Salt]	0.065	–
Cc1nc(-c2nnn(C)c2COC(=O)N(C)C2CCCC2)ccc1O[C@H]1CCO[C@H](C(=O)O)C1 [Example 39]	0.313	–
Cc1nc(-c2nnn(C)c2Cn2nncc2CC2CCCC2)ccc1O[C@H]1COC[C@H](C(=O)O)C1 [Example 25]	0.931	–
Cc1nc(-c2nnn(C)c2COC(=O)N(C)CC2CCC2)ccc1O[C@@H]1CCC[C@@]2(C(=O)O)C[C@@H]12 (single isomer, unassigned) [Example 11]	0.13	–
Cc1nc(-c2nnn(C)c2COC(=O)N(C)CC2CCC2)ccc1O[C@@H]1CCC[C@@]2(C(=O)O)C[C@@H]12 (racemic) [Example 10, (±)-(1R,5R,6R)-5-((6-(5-((((cyclobutylmethyl)(methyl)carbamoyl)oxy)methyl)-1-methyl-1H-1,2,3-triazol-4-yl)-2-methylpyridin-3-yl)oxy)bicyclo[4.1.0]heptane-1-carboxylic Acid]	0.188	–
Cc1nc(-c2nnn(C)c2CNC(=O)OCC(C)(C)C)ccc1O[C@@H]1CCC2C(C(=O)O)C21 (stereo partly shown) [Example 54]	0.275	–
Cc1nc(-c2nnn(C)c2COC(=O)N(C)CC2CCCC2)ccc1OC1COCC(C(=O)O)C1 (racemic) [Example 28, (±)-trans-5-((6-(5-((((cyclopentylmethyl)(methyl)carbamoyl)oxy)methyl)-1-methyl-1H-1,2,3-triazol-4-yl)-2-methylpyridin-3-yl)oxy)tetrahydro-2H-pyran-3-carboxylic Acid, TFA Salt]	0.225	–
Cc1nc(-c2nnn(C)c2COC(=O)NCc2ccccc2)ccc1O[C@@H]1CC[C@H]2C(C(=O)O)[C@@H]12 (stereo partly shown) [Example 63]	0.264	–
CN(CC1CCC1)C(=O)OCc1c(-c2ccc(OC3CC4C(C3)C4C(=O)O)cn2)nnn1C (stereo not shown) [Example 66]	0.322	–
Cc1nc(-c2nnn(C)c2COC(=O)N(C)CC2CCC2)ccc1O[C@H]1CC[C@@H]2[C@@H](C(=O)O)[C@@H]21 (single isomer, unassigned) [Example 46]	2.01	–

SMILES	IC50 (human LPA1) [µM]	further results
Cc1nc(-c2nnn(C)c2NC(=O)OCc2ccccc2)ccc1O[C@@H]1CC[C@H]2C(C(=O)O)[C@@H]12 (stereo partly shown) [Example 64]	0.125	–
Cc1nc(-c2nnn(C)c2COC(=O)N(C)CC2CCC2)ccc1O[C@H]1CC2C[C@H]2[C@@H](C(=O)O)C1 (mixture of isomers) [Example 7, (±)-(1R,2S,4S,6R)-4-((6-(5-((((cyclobutylmethyl)(methyl)carbamoyl)oxy)methyl)-1-methyl-1H-1,2,3-triazol-4-yl)-2-methylpyridin-3-yl)oxy)bicyclo[4.1.0]heptane-2-carboxylic Acid]	0.04	–
CCCCN(C)C(=O)OCc1c(-c2ccc(O[C@H]3C[C@H](C(=O)O)[C@@H]4C[C@@H]43)c(C)n2)nnn1C [Example 14]	0.143	–
Cc1nc(-c2nnn(C)c2COC(=O)N(C)CC2CCC2)ccc1O[C@@H]1C[C@H]2C[C@H]2[C@H](C(=O)O)C1 (racemic) [Example 1, (±)-(1R,2R,4R,6R)-4-((6-(5-((((cyclobutylmethyl)(methyl)carbamoyl)oxy)methyl)-1-methyl-1H-1,2,3-triazol-4-yl)-2-methylpyridin-3-yl)oxy)bicyclo[4.1.0]heptane-2-carboxylic Acid]	0.027	–
CN(C(=O)OCc1c(-c2ccc(OC3CCCC4C(C(=O)O)C34)cn2)nnn1C)C1CCCC1 (racemic) [Example 74, (±)-2-((6-(5-(((Cyclopentyl(methyl)carbamoyl)oxy)methyl)-1-methyl-1H-1,2,3-triazol-4-yl)pyridin-3-yl)oxy)bicyclo[4.1.0]heptane-7-carboxylic Acid]	0.06	–
CCCOc1ccnc(NCc2c(-c3ccc(O[C@@H]4CC[C@H]5C(C(=O)O)[C@@H]45)c(C)n3)nnn2C)n1 (stereo partly shown) [Example 57]	0.035	–
CCCCN(C)C(=O)OCc1c(-c2ccc(O[C@H]3COC[C@@H](C(=O)O)C3)c(C)n2)nnn1C [Example 30]	0.236	–
CCCN(C)C(=O)OCc1c(-c2ccc(O[C@@H]3COC[C@@H](C(=O)O)C3)c(C)n2)nnn1C (racemic) [Example 17, (±)-trans-5-((2-methyl-6-(1-methyl-5-(((methyl(propyl)carbamoyl)oxy)methyl)-1H-1,2,3-triazol-4-yl)pyridin-3-yl)oxy)tetrahydro-2H-pyran-3-carboxylic Acid, TFA Salt]	0.931	–
CCCCN(C)C(=O)OCc1c(-c2ccc(O[C@H]3CCO[C@H](C(=O)O)C3)c(C)n2)nnn1C [Example 37]	0.225	–
CCCCCN(C)C(=O)OCc1c(-c2ccc(O[C@@H]3COC[C@@H](C(=O)O)C3)c(C)n2)nnn1C [Example 19]	0.151	–
CCCN(C)C(=O)OCc1c(-c2ccc(O[C@@H]3CC[C@H]4C(C(=O)O)[C@@H]34)c(C)n2)nnn1C (mixture of isomers) [Example 51, (±)-(1S,2R,5R,6R)-2-((2-methyl-6-(1-methyl-5-(((methyl(propyl)carbamoyl)oxy)methyl)-1H-1,2,3-triazol-4-yl)pyridin-3-yl)oxy)bicyclo[3.1.0]hexane-6-carboxylic Acid]	0.724	–
CN(C(=O)OCc1c(-c2ccc(O[C@@H]3C[C@H](C(=O)O)C[C@@H]4C[C@@H]43)cn2)nnn1C)C1CCCC1 (racemic) [Example 72, (±)-(1 S,3R,5R,6S)-5-((6-(5-(((Cyclopentyl(methyl)carbamoyl)oxy)methyl)-1-methyl-1H-1,2,3-triazol-4-yl)pyridin-3-yl)oxy)bicyclo[4.1.0]heptane-3-carboxylic Acid]	0.08	–
Cc1nc(-c2nnn(C)c2COC(=O)N(C)CC2CCCC2)ccc1O[C@@H]1COC[C@@H](C(=O)O)C1 [Example 22A]	0.16	–
Cc1nc(-c2nnn(C)c2COC(=O)N(C)C2CCCC2)ccc1O[C@@H]1CC[C@H]2C(C(=O)O)[C@@H]12 (stereo partly shown) [Example 62]	0.145	–
CN(C(=O)OCc1c(-c2ccc(O[C@@H]3CC[C@H]4C(C(=O)O)[C@@H]34)cn2)nnn1C)C1CCCC1 (stereo partly shown) [Example 71]	0.114	–
Cc1nc(-c2nnn(C)c2Cn2cc(CC3CCCC3)nn2)ccc1O[C@H]1COC[C@H](C(=O)O)C1 [Example 26]	0.772	–
Cc1nc(-c2nnn(C)c2NC(=O)OCC2CC2)ccc1O[C@H]1C[C@H](C(=O)O)[C@@H]2C[C@@H]21 [Example 16]	0.00143	–
Cc1nc(-c2nnn(C)c2COC(=O)N(C)CC2CCC2)ccc1O[C@@H]1C[C@H](C(=O)O)C[C@@H]2C[C@@H]21 [Example 73]	0.06	–

Source: US12435057B2, “Triazole carboxylic acids as LPA antagonists” (BRISTOL-MYERS SQUIBB COMPANY, priority 2019, dated 2025)
